Results taken from patent US11827624B2, “Covalent immune recruiter compounds for immune cell recognition and associated uses” (McMaster University, priority 2020, dated 2023).

Tested on: PSMA+HEK cells
Assay: Two-colour flow cytometry ADCP (CD64) assay with mmAb on PSMA+HEK cells
Format: cell-based, human
From the text: ADCP flow cytometry experiments were run on a BD LSRII Flow Cytometer. The human IgG isotype control used was purchased from Jackson ImmunoResearch (009-000-003). The human IgG1 monoclonal anti-DNP antibody (mAb) was purchased from acrobiosystems (DNP-M2). PSMA expression was confirmed with an anti-PSMA antibody Alexa 647 conjugate (Novus Biologicals, Catalog #FAB4234R). For PSMA competition controls, PMPA was purchased from Sigma (SML1612). Hek-293T (PSMA+/−) cell lines were generously given by Dr. Cyril Barinka (Institute of Biotechnology CAS, Czech Republic). U937 cells were generously given by Dr. John Valliant (McMaster University, Canada). LNCaP cells were generously given by Dr. Karen Mossman (McMaster University, Canada). IFN-γ was purchased from Fischer Scientific (PHC4031). Ultra low IgG FBS was purchased from Fischer Scientific (A3381901). RPMI-1640 was purchased as a powder from Fischer Scientific (31800089) and resuspended. DMEM was purchased as a powder from Fischer Scientific (12800082) and resuspended. […]
For preparation of effector monocytes, 24 hours prior to inducing phagocytosis U937 monocytes were seeded at 500,000 cells/mL and activated with IFN-γ ([…]). After incubation, these cells were then counted and washed twice with serum free assay media (neat RPMI). […] These cells were then counted and washed twice with serum free assay media (neat RPMI). […]

## O=C(O)CC[C@H](NC(=O)N[C@@H](CCCCNC(=O)NCCOCCOCCOCCOCCOCCOCCOCCOC(=O)n1cnc(CCNC(=O)CNc2ccc([N+](=O)[O-])cc2[N+](=O)[O-])c1)C(=O)O)C(=O)O [CIR 3]
  CD64 based target immune recognition (phagocytosis): only provided a functional enhancement relative to ARM 11 at low antibody concentrations
